Measured values reported in patent publication US12503475B2 (Centessa Pharmaceuticals (UK) Limited, priority 2020, dated 2025).
Like-named read-outs stand apart in the source and are kept apart here. One block for each molecule: values may come before it.

Key:
[1] = system: wild type (WT) colony mates; assay: Wake promoting efficacy, piezoelectric sleep/wake monitoring, wild type mice; type: in vivo, mouse; settings: oral dose 30 mg/kg, dosed 5 h after light onset
Source text: (§1) Wake-promoting efficacy of the compounds of the present disclosure may be evaluated in a model (e.g., the B6.Cg-Tg(HCRT-MJD)1Stak/J (Atax) mouse model of NT1 and wild type (WT) colony mates). The model (e.g., mouse model) may be monitored for rapid, non-invasive classification of sleep and wakefulness by unsupervised machine learning on physiologically relevant readouts, such as body movement and breath rate, after dosing of a compound of the present disclosure (e.g., oral dosing).
(§2) Wake-promoting efficacy was evaluated in the B6.Cg-Tg(HCRT-MJD)1Stak/J (Atax) mouse model of NT1 and wild type (WT) colony mates. Mice were monitored in home cages using piezoelectric sensors for rapid, non-invasive classification of sleep and wakefulness by unsupervised machine learning on physiologically relevant readouts, such as body movement and breath rate. Piezoelectric detection is highly correlated with conventional time-intensive electroencephalogram/electromyography measures of sleep/wake states in both WT and NT1 mice. In a counterbalanced design, mice were orally dosed at 5 h after light onset with test articles at 0 (vehicle), 3 and 30 mg/kg.

[2] = system: B6.Cg-Tg(HCRT-MJD)1Stak/J (Atax) mouse model of NT1; assay: Wake promoting efficacy, piezoelectric sleep/wake monitoring, Atax mice; type: in vivo; settings: dosed 5 h after light onset
Source text: as §1, §2

[3] = molecular target: T1, human orexin type 2 receptor (hOX2R) (Homo sapiens, UniProt O43614); assay: Measurement of orexin type 2 receptor agonist activity (FLIPR calcium fluorescence); type: cell-based; settings: CHO cells expressing hOX2R, FLIPR calcium fluorescence; for EC50: read-out: hOx2 pEC50 (converted); for Emax: CHO, read-out: hOx2 Emax (%)
T1 construct: expressed in transfected cells
T1 sequence (O43614 1-444): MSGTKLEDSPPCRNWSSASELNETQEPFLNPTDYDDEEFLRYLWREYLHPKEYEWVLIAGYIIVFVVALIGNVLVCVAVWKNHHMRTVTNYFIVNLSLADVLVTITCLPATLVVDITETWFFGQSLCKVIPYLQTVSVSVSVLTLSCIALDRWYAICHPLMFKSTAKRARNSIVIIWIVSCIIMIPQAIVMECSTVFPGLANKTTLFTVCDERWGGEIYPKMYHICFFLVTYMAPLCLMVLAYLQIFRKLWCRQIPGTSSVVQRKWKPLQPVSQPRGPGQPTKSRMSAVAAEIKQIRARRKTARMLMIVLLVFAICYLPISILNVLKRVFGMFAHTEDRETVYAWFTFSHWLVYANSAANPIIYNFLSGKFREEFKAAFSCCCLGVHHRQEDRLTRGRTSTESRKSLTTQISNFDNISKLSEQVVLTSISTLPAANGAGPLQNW
Summary of the method: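 Agonism was read as fluorescence in cells stably expressing human OX2R. E. is the response at 10 μM relative to orexin A as full agonist (100%).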

[4] = system: individuals with NT1; settings: cited from earlier work
[5] = system: mouse models; settings: cited from earlier work

SMILES: O=C([C@H]1CCO1)N1CC2(CC2)[C@H](NS(=O)(=O)CF)[C@@H]1Cc1cc(F)cc(-c2ccccc2)c1F [Compound 145, N-((6S,7S)-6-((2,5-difluoro-[1,1′-biphenyl]-3-yl)methyl)-5-((R)-oxetane-2-carbonyl)-5-azaspiro[2.4]heptan-7-yl)-1-fluoromethanesulfonamide]
Wake % time 1 h post dose (increase from vehicle) ([1]; 30 mg/kg): 25.8%
Wake % time 1 h post dose (increase from vehicle) ([1]; listed as 59, 30 mg/kg): 21.1%
Wake % time 1 h post dose (increase from vehicle) ([2]; oral dose 3 mg/kg, 3 mg/kg): 26.9%
Wake % time 1 h post dose (increase from vehicle) ([2]; oral dose 3 mg/kg, listed as 59, 3 mg/kg): 35.5%
Wake % time 1 h post dose (increase from vehicle) ([2]; oral dose 30 mg/kg, 30 mg/kg): 28.3%
Wake % time 1 h post dose (increase from vehicle) ([2]; oral dose 30 mg/kg, listed as 59, 30 mg/kg): 48.6%
EC50 [3]: 0.0794 to 1 nM
Emax [3]: 90 to 100%

SMILES: COC(=O)N1CCC[C@H](NS(C)(=O)=O)[C@@H]1CO[C@H]1CC[C@@H](c2ccccc2)CC1 [TAK-925]
cataplexy [4]: trends for decreasing cataplexy
wakefulness [4]: substantial levels of increased wakefulness
wakefulness ([5]; subcutaneous, WT mice): modestly increased wakefulness

SMILES: COc1ccc(-c2cccc(C(=O)N(C)C)c2)cc1S(=O)(=O)Nc1cccc(NCCNC(=O)c2ccccc2N(C)C)c1 [YNT-185]
sleep-onset REM periods and cataplexy-like events ([5]; NT1 mouse model): decrease sleep-onset REM periods and cataplexy-like events
wakefulness ([5]; intraperitoneally or ICV, wild type (WT) and orexin ligand-deficient mice): modestly increases wakefulness

EC50 [3]: 0.0794 to 1 nM
Emax [3]: 90 to 100%
SMILES: O=C([C@H]1CCO1)N1CC2(CC2)[C@H](NS(=O)(=O)C(F)F)[C@@H]1Cc1cccc(-c2cccc(F)c2)c1F [Compound 154, N-((6S,7S)-6-((2,3′-difluoro-[1,1′-biphenyl]-3-yl)methyl)-5-((R)-oxetane-2-carbonyl)-5-azaspiro[2.4]heptan-7-yl)-1,1-difluoromethanesulfonamide]
Wake % time 1 h post dose (increase from vehicle) ([2]; oral dose 3 mg/kg): 24.4%
Wake % time 1 h post dose (increase from vehicle) ([2]; oral dose 30 mg/kg): 24.5%

EC50 [3]: 0.0794 to 1 nM
Emax [3]: 90 to 100%
SMILES: O=C([C@H]1CCO1)N1CC2(CC2)[C@H](NS(=O)(=O)C(F)F)[C@@H]1Cc1cccc(-c2cc(F)cc(F)c2)c1F [Compound 175]
Wake % time 1 h post dose (increase from vehicle) ([2]; oral dose 3 mg/kg): 25.3%
Wake % time 1 h post dose (increase from vehicle) ([2]; oral dose 30 mg/kg): 29%

SMILES: CCS(=O)(=O)N[C@@H]1[C@H](Cc2cccc(-c3cccc(F)c3)c2F)N(C(=O)[C@H]2CCO2)CC12CC2 [Compound 129, N-((6S,7S)-6-((2,3′-difluoro-[1,1′-biphenyl]-3-yl)methyl)-5-((R)-oxetane-2-carbonyl)-5-azaspiro[2.4]heptan-7-yl)ethanesulfonamide]
Wake % time 1 h post dose (increase from vehicle) [1]: 19.3%
Wake % time 1 h post dose (increase from vehicle) ([2]; oral dose 30 mg/kg): 25.0%
EC50 [3]: 0.0794 to 1 nM
Emax [3]: 90 to 100%

SMILES: O=C([C@H]1CCO1)N1CC2(CC2)[C@H](NS(=O)(=O)C(F)F)[C@@H]1Cc1cccc(-c2ccccc2)c1F [Compound 144, 1,1-difluoro-N-((6S,7S)-6-((2-fluoro-[1,1′-biphenyl]-3-yl)methyl)-5-((R)-oxetane-2-carbonyl)-5-azaspiro[2.4]heptan-7-yl)methanesulfonamide]
Wake % time 1 h post dose (increase from vehicle) [1]: 27.2%
Wake % time 1 h post dose (increase from vehicle) ([2]; oral dose 3 mg/kg): 26.7%
Wake % time 1 h post dose (increase from vehicle) ([2]; oral dose 30 mg/kg): 29.2%
EC50 [3]: 0.0794 to 1 nM
Emax [3]: 90 to 100%

SMILES: CS(=O)(=O)N[C@@H]1[C@H](Cc2cccc(-c3ccccc3)c2F)N(C(=O)[C@H]2CCO2)CC12CC2 (single isomer, unassigned) [Example 21]
Wake % time 1 h post dose (increase from vehicle) [1]: 14.4%
Wake % time 1 h post dose (increase from vehicle) ([2]; oral dose 3 mg/kg): 17.5%
Wake % time 1 h post dose (increase from vehicle) ([2]; oral dose 30 mg/kg): 27.9%
